{
  "source": "ChEMBL document CHEMBL4477233",
  "about": "“Discovery of novel TAOK2 inhibitor scaffolds from high-throughput screening” (Bioorg Med Chem Lett, 2016)",
  "key": {"[1]": {"biological_target": "T1, Serine/threonine-protein kinase TAO2 (Rattus norvegicus, UniProt Q9JLS3)", "T1 sequence (Q9JLS3 whole entry)": "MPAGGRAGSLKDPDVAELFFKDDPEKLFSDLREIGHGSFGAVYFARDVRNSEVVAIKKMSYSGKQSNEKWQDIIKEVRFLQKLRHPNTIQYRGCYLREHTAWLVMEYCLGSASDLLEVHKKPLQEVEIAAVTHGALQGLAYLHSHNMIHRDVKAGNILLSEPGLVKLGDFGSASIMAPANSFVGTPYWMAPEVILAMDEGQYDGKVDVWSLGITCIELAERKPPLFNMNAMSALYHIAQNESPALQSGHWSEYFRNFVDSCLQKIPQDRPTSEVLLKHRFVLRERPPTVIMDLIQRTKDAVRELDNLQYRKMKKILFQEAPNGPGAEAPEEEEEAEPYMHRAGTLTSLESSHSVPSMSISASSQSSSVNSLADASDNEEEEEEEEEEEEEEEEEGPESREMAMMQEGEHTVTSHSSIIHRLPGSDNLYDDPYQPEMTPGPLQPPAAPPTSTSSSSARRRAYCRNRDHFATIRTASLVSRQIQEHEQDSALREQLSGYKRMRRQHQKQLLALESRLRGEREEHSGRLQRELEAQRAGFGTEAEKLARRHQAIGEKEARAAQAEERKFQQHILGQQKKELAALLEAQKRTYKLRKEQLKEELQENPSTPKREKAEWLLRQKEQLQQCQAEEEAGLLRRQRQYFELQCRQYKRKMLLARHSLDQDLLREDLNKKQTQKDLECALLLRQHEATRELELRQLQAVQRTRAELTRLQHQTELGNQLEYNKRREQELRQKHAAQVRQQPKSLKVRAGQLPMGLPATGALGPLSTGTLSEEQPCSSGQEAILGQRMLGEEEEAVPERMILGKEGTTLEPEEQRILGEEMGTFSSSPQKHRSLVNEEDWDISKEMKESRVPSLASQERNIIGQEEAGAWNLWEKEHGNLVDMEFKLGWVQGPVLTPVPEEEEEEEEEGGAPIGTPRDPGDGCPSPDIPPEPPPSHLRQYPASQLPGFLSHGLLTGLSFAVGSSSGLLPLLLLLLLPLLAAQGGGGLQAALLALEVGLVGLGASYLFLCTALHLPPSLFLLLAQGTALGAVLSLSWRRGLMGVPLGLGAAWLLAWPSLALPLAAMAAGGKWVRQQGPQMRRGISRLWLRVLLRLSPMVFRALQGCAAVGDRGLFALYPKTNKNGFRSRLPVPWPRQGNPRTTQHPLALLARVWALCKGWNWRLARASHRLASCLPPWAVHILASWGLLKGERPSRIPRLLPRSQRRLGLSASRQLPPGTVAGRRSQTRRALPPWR", "experiment": "Inhibition of rat TAOK2 (1 to 320 residues) expressed in Baculovirus/insect cell expression system using MBP as substrate measured after 10 mins in presence of [32P]ATP by radiometric assay"}, "[2]": {"biological_target": "Glycogen synthase kinase-3 beta (Homo sapiens) (UniProt P49841)", "sequence (P49841 whole entry, looked up)": "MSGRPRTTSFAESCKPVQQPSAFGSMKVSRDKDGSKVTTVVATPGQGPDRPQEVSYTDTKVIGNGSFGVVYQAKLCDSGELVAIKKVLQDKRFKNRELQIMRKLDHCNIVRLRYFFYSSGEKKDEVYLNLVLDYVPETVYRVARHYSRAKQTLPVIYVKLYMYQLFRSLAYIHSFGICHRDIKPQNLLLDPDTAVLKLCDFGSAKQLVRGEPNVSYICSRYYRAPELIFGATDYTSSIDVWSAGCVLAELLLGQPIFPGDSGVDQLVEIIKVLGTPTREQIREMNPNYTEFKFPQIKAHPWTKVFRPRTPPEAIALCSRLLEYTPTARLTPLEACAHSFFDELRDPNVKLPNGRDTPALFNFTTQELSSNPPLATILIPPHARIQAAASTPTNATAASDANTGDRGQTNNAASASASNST", "experiment": "Inhibition of human GSK3beta", "settings": "concentration not given here"}},
  "data": [
    {"smiles": "CCC(=O)Nc1nc(C)c(-c2csc(Nc3cc(OC)ccc3OC)n2)s1", "values": [
      {"measurement": "IC50", "setting": "[1]", "result": 300, "unit": "nM"},
      {"measurement": "inhibition", "setting": "[2]", "result": "> 50", "unit": "%"}
    ]}
  ]
}
